Data on one compound can be found in patent publication US20180148418A1, “AMIDO-SUBSTITUTED CYCLOHEXANE DERIVATIVES” (Bayer Pharma Aktiengesellschaft, priority 2015, published 2018).

As a reminder, the IC50 is the concentration that gives 50% inhibition.

Assay [1] relates to HEK293 cells cotransfected with the FOP control vector. The assay is described as follows: HEK293 FOP assay (control reporter with non-functional TCF elements). It counts as cell-based. Particulars: Homo sapiens, 16 hours. In short, it runs like this:
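Compound series from 50 μM down to 15 nM, prediluted in DMSO then 50-fold into CAFTY buffer (pH 7.4, 2 mM Ca2+, 0.01% BSA), tested alongside TOP cells on a Geneticin-selected HEK293 FOP line whose TCF elements are replaced by a random sequence; recombinant human Wnt-3a applied at 2500-5 ng/ml.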

Assay [2] has as its system wildtype Wnt signaling cascade. The assay is described as follows: HEK293 TOP assay (Super TopFlash luciferase reporter, Wnt-3a stimulated). The assay is classed as cell-based. Particulars: Homo sapiens, HEK293, 16 h, HEK293 TOP reporter cells, Wnt3a at EC50, 16 hours. In short, it runs like this: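 Compound series (50 μM down to 15 nM, 3.16-fold) diluted from DMSO 50-fold into CAFTY buffer, pH 7.4, 2 mM Ca^2+, 0.01% BSA, applied to Wnt-3a-stimulated HEK293 TopFlash and FOP reporter lines in parallel. Cells seeded 10000/well 24 h before; luciferase signal measured.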

In another assay the target is T1, TNKS1 (Homo sapiens, UniProt O95271).
T1 construct: purchased BPS Bioscience, San Diego, USA 80579 (TNKS1 Histone Ribosylation Assay Kit)
T1 sequence (O95271 1-1327): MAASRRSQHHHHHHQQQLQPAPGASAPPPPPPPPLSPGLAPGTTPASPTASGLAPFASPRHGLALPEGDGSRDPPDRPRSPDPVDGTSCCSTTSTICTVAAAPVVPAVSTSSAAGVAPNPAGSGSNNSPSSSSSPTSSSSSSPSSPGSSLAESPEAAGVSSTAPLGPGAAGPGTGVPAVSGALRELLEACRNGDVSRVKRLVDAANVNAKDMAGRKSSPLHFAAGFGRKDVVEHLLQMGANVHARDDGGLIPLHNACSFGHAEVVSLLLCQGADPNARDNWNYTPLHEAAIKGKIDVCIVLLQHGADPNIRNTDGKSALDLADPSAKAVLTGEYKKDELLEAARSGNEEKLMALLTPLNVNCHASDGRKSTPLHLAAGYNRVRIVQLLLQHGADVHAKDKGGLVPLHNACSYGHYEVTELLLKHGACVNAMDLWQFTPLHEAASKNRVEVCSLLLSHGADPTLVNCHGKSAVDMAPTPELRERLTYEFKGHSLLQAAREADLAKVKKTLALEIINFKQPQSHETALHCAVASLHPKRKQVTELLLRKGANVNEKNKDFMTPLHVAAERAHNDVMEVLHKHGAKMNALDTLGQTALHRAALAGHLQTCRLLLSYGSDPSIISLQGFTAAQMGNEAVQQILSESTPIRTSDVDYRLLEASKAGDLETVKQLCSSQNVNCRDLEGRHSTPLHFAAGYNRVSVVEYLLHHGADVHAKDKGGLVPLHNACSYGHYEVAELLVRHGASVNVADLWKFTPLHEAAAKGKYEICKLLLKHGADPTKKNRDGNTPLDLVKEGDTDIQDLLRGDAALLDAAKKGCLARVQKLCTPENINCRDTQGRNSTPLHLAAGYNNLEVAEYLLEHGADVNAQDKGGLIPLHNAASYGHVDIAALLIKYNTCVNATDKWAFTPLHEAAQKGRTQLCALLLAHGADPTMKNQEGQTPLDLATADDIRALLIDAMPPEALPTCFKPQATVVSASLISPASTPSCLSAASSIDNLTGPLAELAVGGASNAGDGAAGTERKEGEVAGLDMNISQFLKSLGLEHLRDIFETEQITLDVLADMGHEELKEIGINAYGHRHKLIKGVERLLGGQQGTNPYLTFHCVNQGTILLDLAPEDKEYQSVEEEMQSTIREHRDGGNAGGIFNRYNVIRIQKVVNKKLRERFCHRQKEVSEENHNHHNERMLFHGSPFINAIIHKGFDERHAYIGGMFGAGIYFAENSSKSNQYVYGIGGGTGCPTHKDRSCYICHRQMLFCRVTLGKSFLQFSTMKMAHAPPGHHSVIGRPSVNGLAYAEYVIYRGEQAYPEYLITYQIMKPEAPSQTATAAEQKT
The assay is described as follows: TNKS1 Assay B (auto-parsylation, [3H]-NAD+ SPA). It counts as biochemical. Particulars: 6 nM TNKS1, auto-parsylation, over night at room temperature. On the procedure:
The potency of selected compounds according to the invention was assessed applying a modified in vitro inhibition assay. Here, the TNKS1 catalyzed NAD^+-dependent ribosylation of the enzyme itself (auto-parsylation) was detected using [^3H]-NAD^+ as substrate and applying the scintillation proximity assay (SPA) method to detect tritium-labeled, parsylated TNKS1. The intensity of the readout signal is proportional to the incorporated [^3H]-NAD^+. Inhibition of TNKS1 leads to a decreased incorporation of [^3H]-NAD^+ and consequently to a lower readout signal intensity. The concentration of a test compound which inhibits the enzyme activity by 50% (corresponds to half of the normed readout signal intensity) is reported as IC50.
Protocol Auto-Parsylation Assay
The assay was conducted in a 96 well MTP format with the identical TNKS1 enzyme sample and NAD^+ sample as in the histone ribosylation assay with the following modifications: TNKS1 enzyme sample was diluted with a modified assay buffer (50 mM MES pH 7.0, 1 mM DTT, 0.01% Triton X-100) to a final concentration of 6 nM TNKS1 and 10×NAD^+ solution was diluted with the modified assay buffer (s. above) to a final 0.445×NAD^+ solution doped with 100 Bq/μl [^3H]-NAD^+[Catalog #NET443H050UC, Perkin Elmer, Waltham, Mass., USA]. Substrate solution (10 μl) was incubated with different test compound concentrations (2.5 ul in 10% DMSO in modified assay buffer) or control (2.5 ul 10% DMSO in modified assay buffer only) and enzyme (10 μl) over night at room temperature. Incorporated tritium was measured after addition of 50 μl SPA beads (1 mg/ml) [Catalog #RPNQ0095 20 mg/ml, Perkin Elmer, Waltham, Mass., USA; diluted 1:10 with Dulbecco's phosphate buffered saline, PBS Catalog #D8537, Sigma-Aldrich, Steinheim, Germany] and detection of the photon emission with a beta count plate reader [Wallac MicroBeta®, Perkin Elmer, Waltham, Mass., USA].

For the compound `O=C(N[C@H]1CC[C@H](C(=O)Nc2cc(N3CCOCC3)ccc2Cl)CC1)c1[nH]cnc1C(=O)N1CC(F)(F)C1` [Example 92, N-(trans-4-{[2-chloro-5-(morpholin-4-yl)phenyl]carbamoyl}cyclohexyl)-4-[(3,3-difluoroazetidin-1-yl)carbonyl]-1H-imidazole-5-carboxamide], the IC50 in assay [1] is 21 µM; in assay [2], 3.2 µM; on TNKS1, over 10 µM.
